Active and inactive are the calls of the source. The calls are words filed in the database; no cut-off is given here.
Assays:
[1] = Plasma protein binding in rat at 5 uM after 4 hrs by equilibrium dialysis method; format: ADME, cell-free; conditions: read-out: PPB
[2] = target: T1, Nuclear receptor subfamily 1 group I member 2 (Homo sapiens, UniProt O75469); experiment: Agonist activity at GAL4-fused human PXR expressed in HEK293 cells assessed as activation of basal transcriptional activity up to 10 uM after 20 hrs by dual-glo luciferase reporter gene assay; format: cell-based; conditions: hek293, 20 h
T1 sequence (O75469 whole entry): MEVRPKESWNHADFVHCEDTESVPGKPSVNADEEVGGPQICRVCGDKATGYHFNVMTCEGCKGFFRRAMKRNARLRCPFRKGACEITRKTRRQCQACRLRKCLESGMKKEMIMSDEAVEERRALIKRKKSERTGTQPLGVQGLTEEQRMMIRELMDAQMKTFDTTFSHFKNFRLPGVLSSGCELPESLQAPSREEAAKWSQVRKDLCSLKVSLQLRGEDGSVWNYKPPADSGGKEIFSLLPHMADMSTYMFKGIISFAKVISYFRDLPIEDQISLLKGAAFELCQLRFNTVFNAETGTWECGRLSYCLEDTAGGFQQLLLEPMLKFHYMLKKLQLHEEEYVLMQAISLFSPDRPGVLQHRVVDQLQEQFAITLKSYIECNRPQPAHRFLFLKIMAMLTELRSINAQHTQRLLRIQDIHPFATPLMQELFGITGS

[3] = target: T2, Oxysterols receptor LXR-alpha (Homo sapiens) (UniProt Q13133); experiment: Agonist activity at GAL4-fused human LXRalpha expressed in HEK293 cells assessed as activation of basal transcriptional activity up to 10 uM after 20 hrs by dual-glo luciferase reporter gene assay; format: cell-based
T2 sequence (whole entry): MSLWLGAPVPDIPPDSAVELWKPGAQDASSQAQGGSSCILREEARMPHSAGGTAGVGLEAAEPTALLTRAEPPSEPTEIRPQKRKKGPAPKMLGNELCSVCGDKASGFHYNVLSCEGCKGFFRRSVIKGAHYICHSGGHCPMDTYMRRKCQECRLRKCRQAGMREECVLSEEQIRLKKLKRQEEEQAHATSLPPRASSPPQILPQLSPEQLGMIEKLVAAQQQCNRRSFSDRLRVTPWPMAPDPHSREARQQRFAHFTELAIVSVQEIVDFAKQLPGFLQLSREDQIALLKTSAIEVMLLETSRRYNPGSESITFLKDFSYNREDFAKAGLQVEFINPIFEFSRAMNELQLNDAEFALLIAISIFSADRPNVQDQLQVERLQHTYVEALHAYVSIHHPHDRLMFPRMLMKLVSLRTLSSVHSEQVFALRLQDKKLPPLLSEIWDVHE

[4] = Apparent permeability across basolateral to apical side in MDCK cells at 100 uM after 60 mins by HPLC analysis; format: ADME, cell-based, Canis lupus familiaris; conditions: dog
[5] = Plasma protein binding in human at 5 uM after 4 hrs by equilibrium dialysis method; format: ADME, cell-free; conditions: read-out: PPB
[6] = target: T1, Nuclear receptor subfamily 1 group I member 2; experiment: Antagonist activity at GAL4-fused human PXR expressed in HEK293 cells assessed as inhibition of T0901317-stimulated transcriptional activity after 20 hrs by dual-glo luciferase reporter gene assay; format: cell-based
[7] = target: T3, Oxysterols receptor LXR-beta (Homo sapiens, UniProt P55055); experiment: Antagonist activity at GAL4-fused human LXRbeta expressed in HEK293 cells assessed as inhibition of T0901317-stimulated transcriptional activity after 20 hrs by dual-glo luciferase reporter gene assay; format: cell-based
T3 sequence (P55055 whole entry): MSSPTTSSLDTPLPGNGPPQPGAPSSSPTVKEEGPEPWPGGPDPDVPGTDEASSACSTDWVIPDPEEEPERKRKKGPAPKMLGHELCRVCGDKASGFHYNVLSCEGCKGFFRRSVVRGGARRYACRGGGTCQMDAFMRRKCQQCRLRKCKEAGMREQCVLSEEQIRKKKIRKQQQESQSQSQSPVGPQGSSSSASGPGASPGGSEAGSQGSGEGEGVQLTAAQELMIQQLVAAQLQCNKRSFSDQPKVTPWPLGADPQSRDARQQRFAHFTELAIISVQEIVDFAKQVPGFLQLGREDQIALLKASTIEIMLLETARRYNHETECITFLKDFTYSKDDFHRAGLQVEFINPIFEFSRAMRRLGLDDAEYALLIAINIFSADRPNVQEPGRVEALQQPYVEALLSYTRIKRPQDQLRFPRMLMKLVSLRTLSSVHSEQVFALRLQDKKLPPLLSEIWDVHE

[8] = target: T4, Nuclear receptor ROR-gamma (Homo sapiens) (UniProt P51449); experiment: Inverse agonist activity at N-terminal 6xHis-tagged human RORc ligand binding domain (241 to 486) expressed in bacterial expression system assessed as inhibition of SRC1 co-activator peptide recruitment after 3 hrs by TR-FRET analysis relative to apo-RORc ligand binding domain
T4 sequence (whole entry): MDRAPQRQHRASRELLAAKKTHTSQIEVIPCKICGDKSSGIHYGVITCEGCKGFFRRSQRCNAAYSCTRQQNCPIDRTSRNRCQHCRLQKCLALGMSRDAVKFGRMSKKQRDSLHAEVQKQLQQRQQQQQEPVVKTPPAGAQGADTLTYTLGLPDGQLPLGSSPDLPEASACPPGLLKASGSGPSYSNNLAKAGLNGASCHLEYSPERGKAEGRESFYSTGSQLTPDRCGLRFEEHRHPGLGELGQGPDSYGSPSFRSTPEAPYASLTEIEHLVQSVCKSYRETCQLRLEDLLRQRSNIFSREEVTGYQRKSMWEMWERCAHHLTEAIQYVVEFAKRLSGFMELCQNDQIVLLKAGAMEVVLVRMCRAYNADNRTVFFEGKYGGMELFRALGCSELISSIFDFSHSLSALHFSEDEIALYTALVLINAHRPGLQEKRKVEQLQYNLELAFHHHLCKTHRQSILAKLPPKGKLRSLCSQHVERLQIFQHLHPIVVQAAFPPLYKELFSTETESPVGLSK

[9] = target: T5, Oxysterols receptor LXR-beta (Homo sapiens) (UniProt P55055); experiment: Agonist activity at GAL4-fused human LXRbeta expressed in HEK293 cells assessed as activation of basal transcriptional activity up to 10 uM after 20 hrs by dual-glo luciferase reporter gene assay; format: cell-based
T5 sequence (whole entry): T3 sequence (P55055 whole entry)

fraction unbound at 4 h, 5 µM [1] | Activity [2] | Activity [3] | Papp B→A at 1 h, 100 µM [4] [×10⁻⁶ cm/s] | fraction unbound at 4 h, 5 µM [5] | EC50 [6] [nM] | EC50 [7] [µM] | Efficacy [8] [%] | Activity [9] | Compound
0.01 | Not Active | inactive | 11 | < 0.01 | 4800 | 5.7 | -99 | inactive | O=C(Nc1ccc2c(c1)N(S(=O)(=O)c1ccc(F)cc1)CC2)c1c(F)cccc1F
< 0.01 | Not Active | inactive | 15 | < 0.01 | 940 | 3.8 | -89 | inactive | O=C(Nc1ccc2c(c1)N(S(=O)(=O)c1ccc(F)cc1)CCC2)c1ccccc1Cl
0.01 | Not Active | inactive | 14 | < 0.01 | 1100 | 3.2 | -99 | inactive | O=C(Nc1ccc2c(c1)N(S(=O)(=O)c1ccc(F)cc1)CCC2)c1c(F)cccc1F
< 0.01 | Not Active | inactive | 12 | < 0.01 | 820 | 2.6 | -89 | inactive | O=C(Nc1ccc2c(c1)N(S(=O)(=O)c1ccc(F)cc1)CCC2)c1c(F)cccc1Cl
